Experimental data reported in ChEMBL document CHEMBL1201862, “PubChem BioAssay data set” (2004).
Activity calls are given as the source filed them.

What was measured:
[1] = microbe, parasite or virus in culture; assay type: functional; conditions: Mycobacterium tuberculosis
[2] = THP-1 cell cytotoxicity, dose response, cytotoxicity control for non-replicating M. tuberculosis project (AID 489025); assay type: functional
[3] = Vero E6 cell cytotoxicity, dose response, cytotoxicity control for non-replicating M. tuberculosis project, secondary assay (AID 492998); assay type: functional, VeroE6; conditions: Vero C1008
[4] = cells; assay type: functional
[5] = biological target: Cytochrome P450 2C19 (Homo sapiens, UniProt P33261); assay: Cytochrome panel assay with activity outcomes. Panel member name: p450-cyp2c19 Compounds with AC50 equal or less than 10 uM are considered active; assay type: functional; conditions: read-out: AC50
Sequence of Cytochrome P450 2C19 (P33261 whole entry): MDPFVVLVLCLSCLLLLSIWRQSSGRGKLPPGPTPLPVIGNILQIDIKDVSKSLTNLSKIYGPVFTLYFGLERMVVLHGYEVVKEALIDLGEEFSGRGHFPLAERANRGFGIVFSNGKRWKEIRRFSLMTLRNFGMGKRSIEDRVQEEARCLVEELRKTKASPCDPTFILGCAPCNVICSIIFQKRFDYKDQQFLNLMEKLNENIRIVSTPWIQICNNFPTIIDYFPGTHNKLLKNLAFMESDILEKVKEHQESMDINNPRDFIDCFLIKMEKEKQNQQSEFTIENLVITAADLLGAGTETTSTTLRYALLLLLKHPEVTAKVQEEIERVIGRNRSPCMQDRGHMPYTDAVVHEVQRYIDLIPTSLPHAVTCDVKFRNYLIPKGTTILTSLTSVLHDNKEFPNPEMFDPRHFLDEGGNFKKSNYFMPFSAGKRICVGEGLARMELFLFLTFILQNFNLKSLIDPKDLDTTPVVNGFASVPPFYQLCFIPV

[6] = biological target: Cytochrome P450 2C9 (Homo sapiens, UniProt P11712)
Sequence of Cytochrome P450 2C9 (P11712 whole entry): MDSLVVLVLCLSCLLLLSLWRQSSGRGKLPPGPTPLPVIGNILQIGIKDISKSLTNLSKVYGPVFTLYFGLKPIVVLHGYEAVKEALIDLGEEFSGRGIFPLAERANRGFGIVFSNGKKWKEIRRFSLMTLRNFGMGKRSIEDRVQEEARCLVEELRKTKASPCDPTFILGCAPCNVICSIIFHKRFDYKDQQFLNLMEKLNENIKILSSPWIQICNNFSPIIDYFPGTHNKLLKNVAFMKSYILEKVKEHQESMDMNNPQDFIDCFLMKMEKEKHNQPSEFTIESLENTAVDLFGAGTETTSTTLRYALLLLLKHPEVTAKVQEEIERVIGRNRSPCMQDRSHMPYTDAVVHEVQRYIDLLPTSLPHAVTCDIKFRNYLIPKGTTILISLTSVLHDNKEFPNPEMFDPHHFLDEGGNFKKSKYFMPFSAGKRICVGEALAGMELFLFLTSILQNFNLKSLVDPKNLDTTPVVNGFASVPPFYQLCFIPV

[7] = biological target: Cytochrome P450 3A4 (Homo sapiens, UniProt P08684);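 further: CYP3A4 tested as one member of a cytochrome P450 panel screen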
Sequence of Cytochrome P450 3A4 (P08684 whole entry): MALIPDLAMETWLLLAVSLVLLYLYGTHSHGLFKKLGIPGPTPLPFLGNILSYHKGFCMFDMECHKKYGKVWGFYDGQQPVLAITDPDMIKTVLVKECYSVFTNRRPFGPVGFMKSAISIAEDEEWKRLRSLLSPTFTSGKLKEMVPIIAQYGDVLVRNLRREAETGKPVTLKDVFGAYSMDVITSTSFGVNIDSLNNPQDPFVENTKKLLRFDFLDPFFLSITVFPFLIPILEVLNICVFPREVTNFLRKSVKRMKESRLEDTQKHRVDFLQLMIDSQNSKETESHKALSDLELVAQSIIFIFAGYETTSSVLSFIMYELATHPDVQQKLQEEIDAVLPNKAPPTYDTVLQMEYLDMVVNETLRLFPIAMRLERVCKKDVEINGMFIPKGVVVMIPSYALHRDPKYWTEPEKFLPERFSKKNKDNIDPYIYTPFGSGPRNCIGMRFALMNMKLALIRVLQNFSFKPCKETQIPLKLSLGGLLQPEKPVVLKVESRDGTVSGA

[8] = biological target: Peroxisome proliferator-activated receptor gamma/Nuclear receptor coactivator 2 (Homo sapiens, UniProt P37231); assay type: functional;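 further: agonist potency for raising coactivator recruitment to the receptor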
Sequence of Peroxisome proliferator-activated receptor gamma/Nuclear receptor coactivator 2 (P37231 whole entry): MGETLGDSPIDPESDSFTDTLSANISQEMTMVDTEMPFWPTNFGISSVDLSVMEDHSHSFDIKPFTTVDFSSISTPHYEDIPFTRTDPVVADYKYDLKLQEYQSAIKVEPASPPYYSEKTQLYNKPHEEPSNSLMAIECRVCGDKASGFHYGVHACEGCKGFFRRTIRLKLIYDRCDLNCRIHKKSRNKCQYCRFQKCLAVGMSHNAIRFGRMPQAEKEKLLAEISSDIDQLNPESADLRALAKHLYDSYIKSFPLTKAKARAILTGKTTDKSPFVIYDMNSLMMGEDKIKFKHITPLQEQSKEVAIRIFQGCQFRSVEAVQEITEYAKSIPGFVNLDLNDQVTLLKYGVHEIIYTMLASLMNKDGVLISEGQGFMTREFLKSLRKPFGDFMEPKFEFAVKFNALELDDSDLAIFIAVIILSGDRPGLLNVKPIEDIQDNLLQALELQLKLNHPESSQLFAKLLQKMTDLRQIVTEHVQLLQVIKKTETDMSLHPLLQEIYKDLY
Sequence of Peroxisome proliferator-activated receptor gamma/Nuclear receptor coactivator 2 (Q15596 whole entry, further chain): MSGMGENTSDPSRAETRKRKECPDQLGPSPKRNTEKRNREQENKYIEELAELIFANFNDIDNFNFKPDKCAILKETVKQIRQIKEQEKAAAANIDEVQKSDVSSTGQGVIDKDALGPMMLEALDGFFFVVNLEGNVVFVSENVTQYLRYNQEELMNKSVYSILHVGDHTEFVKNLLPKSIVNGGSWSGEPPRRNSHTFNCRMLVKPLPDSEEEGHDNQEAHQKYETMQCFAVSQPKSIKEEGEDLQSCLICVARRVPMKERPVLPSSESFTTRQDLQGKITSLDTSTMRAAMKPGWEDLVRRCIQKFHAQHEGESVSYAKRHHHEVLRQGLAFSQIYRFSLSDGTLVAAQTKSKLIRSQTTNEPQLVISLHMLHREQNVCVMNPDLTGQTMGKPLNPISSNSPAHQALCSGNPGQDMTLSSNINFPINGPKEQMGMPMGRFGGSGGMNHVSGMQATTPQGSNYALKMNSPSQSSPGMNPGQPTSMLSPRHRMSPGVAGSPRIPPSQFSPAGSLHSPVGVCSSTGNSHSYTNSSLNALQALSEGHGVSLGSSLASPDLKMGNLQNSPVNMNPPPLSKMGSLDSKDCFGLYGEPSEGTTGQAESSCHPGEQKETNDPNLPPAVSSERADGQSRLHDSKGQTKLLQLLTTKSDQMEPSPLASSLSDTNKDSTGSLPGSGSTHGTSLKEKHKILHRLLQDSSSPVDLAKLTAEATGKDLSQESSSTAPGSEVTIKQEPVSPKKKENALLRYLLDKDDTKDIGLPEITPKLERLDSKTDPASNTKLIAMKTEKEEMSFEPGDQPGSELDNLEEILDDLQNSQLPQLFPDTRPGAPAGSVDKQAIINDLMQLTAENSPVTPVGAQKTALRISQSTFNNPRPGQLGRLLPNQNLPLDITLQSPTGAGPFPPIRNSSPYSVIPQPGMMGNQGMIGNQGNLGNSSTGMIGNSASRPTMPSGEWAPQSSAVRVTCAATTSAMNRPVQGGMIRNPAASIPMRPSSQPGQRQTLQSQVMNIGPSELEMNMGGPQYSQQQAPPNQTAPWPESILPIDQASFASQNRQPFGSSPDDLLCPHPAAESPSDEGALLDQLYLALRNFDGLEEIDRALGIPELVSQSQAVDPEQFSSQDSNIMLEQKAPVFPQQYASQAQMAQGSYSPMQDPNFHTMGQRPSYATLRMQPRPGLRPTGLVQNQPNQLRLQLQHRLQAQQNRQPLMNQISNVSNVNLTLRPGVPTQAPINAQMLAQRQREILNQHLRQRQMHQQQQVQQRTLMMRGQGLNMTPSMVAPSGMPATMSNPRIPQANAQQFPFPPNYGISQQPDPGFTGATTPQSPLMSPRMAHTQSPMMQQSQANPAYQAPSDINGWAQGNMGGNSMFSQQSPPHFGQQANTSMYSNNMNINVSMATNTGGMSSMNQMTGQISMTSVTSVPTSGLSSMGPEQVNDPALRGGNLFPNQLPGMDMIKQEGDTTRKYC

[9] = biological target: Peroxisome proliferator-activated receptor gamma/Nuclear receptor coactivator 1 (Homo sapiens, UniProt P37231); assay type: functional;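 further: agonist potency as compounds enhance coactivator SRC-1 recruitment to PPARgamma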
[10] = biological target: Peroxisome proliferator-activated receptor gamma/Nuclear receptor coactivator 3 (Homo sapiens, UniProt P37231); assay type: functional;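 further: agonist potency for raising coactivator recruitment to the receptor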
[11] = biological target: T1, Mucolipin-3 (Homo sapiens, UniProt Q8TDD5); assay: Dose response cell-based high-throughput screening assay for agonists of the transient receptor potential channel ML3 (TRPML3). [Related pubchem assays: 1526, 1424, 1448 ]; assay type: functional
T1 sequence (Q8TDD5 whole entry): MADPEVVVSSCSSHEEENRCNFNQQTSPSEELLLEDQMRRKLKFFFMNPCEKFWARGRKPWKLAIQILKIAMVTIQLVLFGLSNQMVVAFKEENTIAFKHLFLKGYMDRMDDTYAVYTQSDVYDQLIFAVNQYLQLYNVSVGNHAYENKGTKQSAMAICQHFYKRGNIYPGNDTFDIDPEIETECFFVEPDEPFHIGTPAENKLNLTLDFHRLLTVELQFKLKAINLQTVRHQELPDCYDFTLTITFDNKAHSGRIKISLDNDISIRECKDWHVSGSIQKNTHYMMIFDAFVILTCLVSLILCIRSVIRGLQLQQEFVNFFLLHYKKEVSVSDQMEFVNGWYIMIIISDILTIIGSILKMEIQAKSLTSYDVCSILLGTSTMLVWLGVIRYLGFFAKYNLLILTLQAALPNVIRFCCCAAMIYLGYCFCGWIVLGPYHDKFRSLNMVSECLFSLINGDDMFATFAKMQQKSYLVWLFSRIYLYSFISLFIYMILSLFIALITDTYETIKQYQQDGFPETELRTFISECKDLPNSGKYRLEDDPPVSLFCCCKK

[12] = biological target: Ion channel NompC (Danio rerio, UniProt Q7T1G6); assay: Fluorescence counterscreen assay for TRPML3 agonists: dose response cell-based high-throughput screening assay to identify agonists of the transient receptor potential channel N1 (TRPN1). [Related pubchem assays: 1526, 1424, 1448 ]; assay type: functional
[13] = growth suppression of PTEN-null colon cells, dose response, cell-based, HCT116 PTEN knockout (AID 1047); assay type: functional;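 further: HCT116 colon tumor cells with PTEN knocked out; cells exposed to compound for 60 hours before readout; potency for loss of cell viability measured by luminescence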
[14] = growth suppression of beta-catenin-knockout colon cells, dose response, cell-based, HCT116, human colon tumor (AID 1045); assay type: functional;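 further: HCT116 colon tumor cells with beta catenin knocked out; cells exposed to compound for 60 hours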
[15] = biological target: Delta-type opioid receptor (Homo sapiens, UniProt P41143); assay: Counterscreen for agonists of heterodimerization of the mu 1 (OPRM1) and delta 1 (OPRD1) opioid receptors: Luminescence-based cell-based high throughput dose response assay to identify agonists of OPRD1 homodimerization. [Related pubchem assays (depositor defined):AID504326, AID504355, AID504692, AID504904, AID504905]; assay type: functional
[16] = biological target: Mu-type opioid receptor (Homo sapiens, UniProt P35372); assay: Counterscreen for agonists of heterodimerization of the mu 1 (OPRM1) and delta 1 (OPRD1) opioid receptors: Luminescence-based cell-based high throughput dose response assay to identify agonists of OPRM1 homodimerization.; assay type: functional;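 further: U2OS cells expressing OPRM1 and beta-arrestin as split beta-galactosidase partners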
Sequence of Mu-type opioid receptor (P35372 whole entry): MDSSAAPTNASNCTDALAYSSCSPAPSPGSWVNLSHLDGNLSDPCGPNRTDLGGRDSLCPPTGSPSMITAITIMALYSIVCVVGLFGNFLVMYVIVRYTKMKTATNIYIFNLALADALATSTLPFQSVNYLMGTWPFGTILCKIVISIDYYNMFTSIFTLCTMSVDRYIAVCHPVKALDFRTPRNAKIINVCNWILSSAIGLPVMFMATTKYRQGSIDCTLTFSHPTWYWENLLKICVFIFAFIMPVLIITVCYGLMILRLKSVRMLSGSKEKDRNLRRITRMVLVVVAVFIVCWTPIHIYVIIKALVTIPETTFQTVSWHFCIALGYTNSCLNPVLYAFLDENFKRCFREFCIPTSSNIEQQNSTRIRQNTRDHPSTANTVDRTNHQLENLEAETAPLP

[17] = biological target: 5-hydroxytryptamine receptor 5A (Homo sapiens, UniProt P47898); assay: Counterscreen for agonists of OPRM1-OPRD1 heterodimerization: luminescence-based cell-based high throughput dose response assay to identify agonists of 5-hydroxytryptamine (serotonin) 5A receptor (HTR5A). [Related pubchem assays (depositor defined):AID504326, AID504355, AID504692, AID504904, AID504905]; assay type: functional
[18] = biological target: SUMO-activating enzyme (Homo sapiens, UniProt Q9UBT2); assay: SUMOylation inhibitor hit validation, confirmation, SUMOylation inhibitor project, biochemical, AlphaScreen (AID 2018); assay type: functional
Sequence of SUMO-activating enzyme (Q9UBE0 whole entry): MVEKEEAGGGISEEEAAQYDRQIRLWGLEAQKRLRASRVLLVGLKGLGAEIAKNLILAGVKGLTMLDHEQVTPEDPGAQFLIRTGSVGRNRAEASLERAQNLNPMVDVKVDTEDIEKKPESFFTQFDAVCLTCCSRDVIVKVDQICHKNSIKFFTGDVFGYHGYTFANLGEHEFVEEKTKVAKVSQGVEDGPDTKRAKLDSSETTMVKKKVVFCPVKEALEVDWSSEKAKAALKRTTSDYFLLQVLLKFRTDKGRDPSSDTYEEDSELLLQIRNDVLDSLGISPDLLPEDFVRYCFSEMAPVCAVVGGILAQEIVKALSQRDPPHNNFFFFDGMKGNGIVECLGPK
Sequence of SUMO-activating enzyme (Q9UBT2 whole entry): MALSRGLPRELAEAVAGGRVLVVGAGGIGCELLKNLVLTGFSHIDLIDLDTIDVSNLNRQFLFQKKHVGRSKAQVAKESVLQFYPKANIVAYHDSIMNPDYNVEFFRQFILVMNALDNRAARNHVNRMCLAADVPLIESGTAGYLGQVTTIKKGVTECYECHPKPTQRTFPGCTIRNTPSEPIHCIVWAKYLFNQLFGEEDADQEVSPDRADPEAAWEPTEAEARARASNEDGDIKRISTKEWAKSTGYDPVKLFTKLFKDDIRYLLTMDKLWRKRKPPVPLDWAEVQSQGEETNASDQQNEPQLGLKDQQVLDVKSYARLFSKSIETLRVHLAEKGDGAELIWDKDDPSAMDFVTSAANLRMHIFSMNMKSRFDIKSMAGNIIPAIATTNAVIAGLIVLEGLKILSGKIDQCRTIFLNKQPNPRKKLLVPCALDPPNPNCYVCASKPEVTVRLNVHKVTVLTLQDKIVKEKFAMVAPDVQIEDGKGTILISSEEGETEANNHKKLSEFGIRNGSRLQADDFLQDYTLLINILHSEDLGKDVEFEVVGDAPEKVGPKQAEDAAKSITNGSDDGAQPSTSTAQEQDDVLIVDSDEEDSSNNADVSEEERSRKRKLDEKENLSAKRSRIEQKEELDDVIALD

[19] = NIH-3T3 fibroblast cytotoxicity, dose response, cytotoxicity control, cell-based, fluorescence, Alamar Blue, secondary assay (AID 2327); assay type: functional;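 further: NIH-3T3 mouse fibroblasts cultured with fluconazole at 8 µg/mL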
[20] = system: HEK293; assay: NOD1 signaling inhibitors, primary screen, cell-based, luminescence, uHTS (AID 1578); assay type: functional; conditions: Homo sapiens
[21] = system: Streptococcus sp. 'group A'; assay: growth inhibition of control SK(-) GAS strain, dose response, counter-screen for streptokinase expression inhibitor project, luminescence, kanamycin, BacTiterGlo, confirmation (AID 1900); assay type: functional, organism-based
[22] = system: BJ; assay: cytotoxicity toward BJ-TERT fibroblasts, dose response, cell-based, RAS-independent, luminescence (AID 1933); assay type: functional; conditions: Homo sapiens
[23] = system: HEK293; assay: cells; assay type: functional, cell-based; conditions: Homo sapiens
[24] = system: BJ; assay: cells; assay type: functional, cell-based; conditions: Homo sapiens
[25] = C. albicans growth with fluconazole, confirmation, fluorescence, retest (AID 2467); assay type: functional, cell-based
[26] = system: HEK293; assay: cells; assay type: functional, cell-based; conditions: Homo sapiens; remark: listed apart in the source
[27] = system: HEK293; assay: NOD2 signaling inhibitors in MDP-stimulated cells, cell-based, uHTS, luminescence (AID 2001); assay type: functional; conditions: Homo sapiens
[28] = system: BJ; assay: cytotoxicity toward BJ-TERT-LT-ST fibroblasts, dose response, cell-based, RAS-independent, luminescence (AID 1935); assay type: functional; conditions: Homo sapiens;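 further: BJ fibroblasts immortalized with TERT plus LT and ST oncogenes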
[29] = cytotoxicity toward DRD oncogenic fibroblasts, dose response, cell-based, non-viral oncogenic, luminescence (AID 1934); assay type: functional; conditions: Homo sapiens
[30] = biological target: Induced myeloid leukemia cell differentiation protein Mcl-1 (Homo sapiens, UniProt Q07820); assay type: functional
[31] = system: Streptococcus; assay: Group A Streptococcus viability loss, dose response, counter-screen for streptokinase expression inhibitor project, luminescence, BacTiterGlo (AID 1915); assay type: functional, organism-based;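 further: potency for reduction of bacterial viability or growth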
[32] = biological target: T2, Ubiquitin-conjugating enzyme E2 N (Homo sapiens, UniProt P61088); assay type: functional
T2 sequence (P61088 whole entry): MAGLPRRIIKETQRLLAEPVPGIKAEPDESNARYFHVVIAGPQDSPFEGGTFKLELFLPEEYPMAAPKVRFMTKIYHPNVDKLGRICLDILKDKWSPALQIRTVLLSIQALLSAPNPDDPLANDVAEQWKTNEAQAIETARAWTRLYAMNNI

[33] = system: INS1; assay: beta cell apoptosis inhibitors, cytokine rescue, dose response, luminescence, retest (AID 449756); assay type: functional, cell-based; conditions: Rattus norvegicus;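 further: cell death triggered by IL-1 beta plus TNF-alpha plus IFN-gamma mixture; protective hits raise ATP signal compared with cytokine alone wells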
[34] = system: Vero; assay: cells; assay type: functional; conditions: Chlorocebus sabaeus
[35] = biological target: T3, Bcl-2-related protein A1 (Mus musculus, UniProt Q07440); assay type: functional;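 further: confirmatory dose–response counterscreen on Bfl-1, used to check hits from a UBC13 polyubiquitin inhibitor campaign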
T3 sequence (Q07440 whole entry): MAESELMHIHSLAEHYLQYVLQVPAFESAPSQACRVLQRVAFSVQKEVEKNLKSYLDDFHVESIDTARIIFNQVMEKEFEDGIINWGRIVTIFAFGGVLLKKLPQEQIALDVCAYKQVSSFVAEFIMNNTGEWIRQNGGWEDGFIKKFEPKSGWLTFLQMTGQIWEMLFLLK

[36] = biological target: T2, Ubiquitin-conjugating enzyme E2 N; assay type: functional; remark: listed apart in the source

SMILES: Oc1nc2ccccc2c2oc(CCl)nc12
- CC50 [1]: 12.9 µM (active)
- CC50 [2]: 20.1 µM (active)
- CC50 [3]: 7.46 µM (active)
- IC50 [4]: 3.25 µM (active)

SMILES: COc1ccc(-c2nnc(-c3ccc(OCC(C)C)cc3)o2)cc1
- AC50 [5]: 7.08 µM (inconclusive)
- AC50 [6]: 20 µM (inconclusive)
- AC50 [7]: inconclusive

SMILES: Cc1ccc(-c2csc(NC(=O)c3cc([N+](=O)[O-])ccc3N3CCOCC3)n2)cc1
- EC50 [8]: > 79.4 µM (not active)
- EC50 [9]: > 79.4 µM (not active)
- EC50 [10]: > 79.4 µM (not active)

SMILES: CCc1nnc(NC(=O)COc2ccc(N(C)S(=O)(=O)c3ccc(C)cc3)cc2)s1
- EC50 [11]: 3.27 µM (active)
- EC50 [12]: > 29.9 µM (not active)

SMILES: COC(=O)c1cn(NC(=O)c2cnccn2)c(=O)c2ccccc12
- EC50 [13]: 9.08 µM (active)
- EC50 [14]: 8.3 µM (active)
- CC50 [2]: 24.2 µM (active)
- CC50 [3]: 16.2 µM (active)
- IC50 [4]: 9.07 µM (active)

SMILES: Cc1cc(=O)oc2cc(NC(=O)C3COc4ccccc4O3)ccc12 (centres undefined)
- EC50 [15]: > 92.5 µM (inactive)
- EC50 [16]: > 92.5 µM (inactive)
- EC50 [17]: > 92.5 µM (inactive)

SMILES: CCOC(=O)C1Cc2c([nH]c3ccccc23)CN1.Cl (centres undefined)
- AC50 [6]: 17.8 µM (inconclusive)
- AC50 [7]: inconclusive

SMILES: Cn1c(=O)[nH]c(=O)c2c1nc(CN1CCOCC1)n2Cc1ccccc1
- AC50 [7]: inconclusive

SMILES: Cc1cc(/C=C2\C(=O)NN(c3ccccc3)C2=O)c(C)n1-c1ccccc1O
- IC50 [18]: 40.7 µM (active)

SMILES: COc1ccc(/C=C(\C#N)C(=O)OCC(=O)NCc2ccccc2Cl)cc1
- IC50 [18]: 42.3 µM (active)

SMILES: Nc1nc(N)c2cc(Sc3ccc4ccccc4c3)ccc2n1
- EC50 [19]: 5.4 µM (inconclusive)
- EC50 [20]: > 20 µM (inactive)
- EC50 [21]: 0.148 µM (active)
- EC50 [22]: 9.21 µM (active)
- IC50 [23]: 11.5 µM (active)
- EC50 [24]: 2.06 µM (active)
- EC50 [25]: 1.38 µM (active)
- IC50 [26]: > 20 µM (inactive)
- IC50 [27]: 5.21 µM (active)
- EC50 [28]: > 150 µM (inconclusive)
- EC50 [29]: 2.96 µM (active)
- IC50 [30]: 3.67 µM (active)
- EC50 [31]: 2.83 µM (active)
- IC50 [32]: > 20 µM (inactive)
- AC50 [33]: 7.99 µM (active)
- CC50 [34]: 0.8 µM (active)

SMILES: Cc1cc(C)c2[nH]c(O)c(N=NC(S)=NCC3CCCO3)c2c1 (centres undefined)
- IC50 [35]: > 20 µM (inactive)
- IC50 [32]: 10.2 µM (active)
- IC50 [36]: 0.509 µM (active)

SMILES: Cc1ccc(NC(=O)CC(=O)c2ccc([N+](=O)[O-])cc2)cc1S(=O)(=O)Nc1cccc(Cl)c1
- EC50 [20]: 9.53 µM (active)
- IC50 [23]: 7.05 µM (active)
- IC50 [26]: > 20 µM (inactive)
- IC50 [27]: 9.19 µM (active)

SMILES: Cc1ccc(Sc2ccc(/C=C3/C(=O)NN(c4ccccc4)C3=O)o2)cc1
- EC50 [20]: > 20 µM (inactive)
- IC50 [23]: 7.56 µM (active)
- IC50 [26]: > 20 µM (inactive)
- IC50 [27]: 18.2 µM (inactive)
- CC50 [1]: > 40 µM (active)
- IC50 [4]: 18.7 µM (active)
